Reference: patent publication US10047051B2, “Substituted pyridines and method of use” (AbbVie S.á{acute over (.)}r.l., priority 2015, dated 2018)

Tests used:
[1] = target: T1, CFTR ΔF508 mutant (Homo sapiens, UniProt P13569, DEL508-508); experiment: YFP-halide influx assay for the CFTR-ΔF508 mutation (CFBE41o- cells); type: cell-based; conditions: forskolin 10.67 μM; for EC50: from (1−F/F0) vs concentration plot
T1 construct: expressed in transfected cells; host or cells: CFBE41o- cells, adenoviral transduction
T1 sequence (P13569 with tags, fused parts or gaps DEL508-508): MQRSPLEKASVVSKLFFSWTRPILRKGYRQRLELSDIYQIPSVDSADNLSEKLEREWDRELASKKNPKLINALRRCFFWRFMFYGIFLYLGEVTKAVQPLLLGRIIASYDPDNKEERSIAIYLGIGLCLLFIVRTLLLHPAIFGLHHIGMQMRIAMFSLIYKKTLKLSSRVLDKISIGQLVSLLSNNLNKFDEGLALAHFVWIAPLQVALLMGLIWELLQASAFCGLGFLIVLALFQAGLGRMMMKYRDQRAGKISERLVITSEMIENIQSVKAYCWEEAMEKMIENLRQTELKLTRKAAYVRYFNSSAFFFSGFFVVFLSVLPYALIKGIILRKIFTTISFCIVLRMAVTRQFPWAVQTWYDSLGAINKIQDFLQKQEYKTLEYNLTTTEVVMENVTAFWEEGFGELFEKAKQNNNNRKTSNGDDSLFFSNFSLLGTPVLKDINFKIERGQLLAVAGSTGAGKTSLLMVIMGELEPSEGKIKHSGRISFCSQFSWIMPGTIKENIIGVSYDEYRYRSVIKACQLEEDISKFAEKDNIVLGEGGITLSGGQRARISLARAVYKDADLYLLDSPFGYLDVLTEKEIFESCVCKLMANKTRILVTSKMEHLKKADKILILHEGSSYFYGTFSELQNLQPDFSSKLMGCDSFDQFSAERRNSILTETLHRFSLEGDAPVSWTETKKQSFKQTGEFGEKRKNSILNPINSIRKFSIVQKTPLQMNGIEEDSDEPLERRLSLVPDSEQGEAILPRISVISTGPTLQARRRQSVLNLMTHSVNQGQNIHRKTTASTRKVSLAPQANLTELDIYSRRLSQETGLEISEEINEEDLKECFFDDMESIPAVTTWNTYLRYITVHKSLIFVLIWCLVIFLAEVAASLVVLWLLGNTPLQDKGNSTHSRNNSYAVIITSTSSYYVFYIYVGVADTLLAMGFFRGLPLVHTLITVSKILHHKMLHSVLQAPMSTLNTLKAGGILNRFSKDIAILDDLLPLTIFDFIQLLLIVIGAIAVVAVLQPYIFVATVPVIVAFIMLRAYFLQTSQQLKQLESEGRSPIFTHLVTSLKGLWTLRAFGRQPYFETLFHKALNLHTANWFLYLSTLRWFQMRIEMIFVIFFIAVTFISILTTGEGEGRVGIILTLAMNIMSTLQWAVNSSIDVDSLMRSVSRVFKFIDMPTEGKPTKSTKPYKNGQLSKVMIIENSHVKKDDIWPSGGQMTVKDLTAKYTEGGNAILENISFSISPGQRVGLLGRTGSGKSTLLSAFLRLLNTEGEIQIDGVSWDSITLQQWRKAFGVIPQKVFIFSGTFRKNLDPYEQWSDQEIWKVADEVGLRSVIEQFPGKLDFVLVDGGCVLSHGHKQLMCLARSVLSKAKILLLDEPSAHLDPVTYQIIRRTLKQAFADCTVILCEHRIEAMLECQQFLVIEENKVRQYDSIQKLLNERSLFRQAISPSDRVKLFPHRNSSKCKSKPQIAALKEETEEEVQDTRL
In short: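 CFBE41o- cells transduced with adenovirus expressing CFTR ΔF508 and halide-sensitive YFP H148Q/I152L/F47L, then held 24 h at 27° C or with a CFTR modulator 24 h at 37° C. Iodide-induced quench recorded 2 min; EC50 from (1−F/F0) at 36 s versus concentration.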

[2] = target: T2, CFTR G551D mutant (Homo sapiens, UniProt P13569, G551D); experiment: YFP-halide influx assay for the CFTR-G551D mutation (HEK293 cells); type: cell-based; conditions: forskolin 10.67 μM
T2 construct: expressed in transfected cells; host or cells: HEK293 cells, reverse transfection with plasmids
T2 sequence (P13569 whole entry G551D): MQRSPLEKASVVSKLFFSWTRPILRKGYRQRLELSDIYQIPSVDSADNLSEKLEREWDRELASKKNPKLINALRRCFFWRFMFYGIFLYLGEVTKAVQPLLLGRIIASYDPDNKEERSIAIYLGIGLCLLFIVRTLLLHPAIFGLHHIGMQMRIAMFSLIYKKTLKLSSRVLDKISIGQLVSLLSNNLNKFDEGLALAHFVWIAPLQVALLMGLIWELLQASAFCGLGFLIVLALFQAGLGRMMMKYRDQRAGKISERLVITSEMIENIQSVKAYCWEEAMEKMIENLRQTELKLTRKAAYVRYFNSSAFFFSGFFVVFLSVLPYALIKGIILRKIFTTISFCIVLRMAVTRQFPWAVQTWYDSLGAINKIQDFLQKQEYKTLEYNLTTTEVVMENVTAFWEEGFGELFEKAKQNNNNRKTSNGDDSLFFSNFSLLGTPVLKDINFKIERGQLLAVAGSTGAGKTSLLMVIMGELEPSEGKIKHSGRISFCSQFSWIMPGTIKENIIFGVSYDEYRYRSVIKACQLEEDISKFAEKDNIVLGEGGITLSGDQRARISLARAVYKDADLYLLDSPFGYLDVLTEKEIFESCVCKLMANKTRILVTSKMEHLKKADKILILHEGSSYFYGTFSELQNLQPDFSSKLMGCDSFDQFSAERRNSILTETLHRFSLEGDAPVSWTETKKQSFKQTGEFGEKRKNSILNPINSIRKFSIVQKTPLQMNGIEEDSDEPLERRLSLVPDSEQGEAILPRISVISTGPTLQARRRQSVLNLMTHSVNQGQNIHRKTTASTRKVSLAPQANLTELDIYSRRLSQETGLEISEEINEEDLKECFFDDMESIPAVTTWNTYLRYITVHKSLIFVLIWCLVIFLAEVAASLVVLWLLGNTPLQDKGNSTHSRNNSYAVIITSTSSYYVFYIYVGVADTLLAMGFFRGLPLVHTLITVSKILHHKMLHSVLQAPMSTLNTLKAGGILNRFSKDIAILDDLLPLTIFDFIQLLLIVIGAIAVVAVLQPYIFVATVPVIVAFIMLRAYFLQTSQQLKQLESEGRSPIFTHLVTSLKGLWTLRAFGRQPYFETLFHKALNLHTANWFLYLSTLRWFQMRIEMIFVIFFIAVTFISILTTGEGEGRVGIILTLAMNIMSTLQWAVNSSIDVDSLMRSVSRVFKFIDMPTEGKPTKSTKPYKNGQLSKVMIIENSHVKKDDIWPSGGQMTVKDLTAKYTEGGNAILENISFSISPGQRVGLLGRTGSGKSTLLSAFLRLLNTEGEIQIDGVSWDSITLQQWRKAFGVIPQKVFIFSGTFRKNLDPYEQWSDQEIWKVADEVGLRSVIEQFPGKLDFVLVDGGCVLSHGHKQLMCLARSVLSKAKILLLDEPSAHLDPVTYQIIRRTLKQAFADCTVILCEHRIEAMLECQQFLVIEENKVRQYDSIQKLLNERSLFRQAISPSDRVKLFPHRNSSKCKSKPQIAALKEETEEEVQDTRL
In short: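 HEK293 cells reverse-transfected with CFTR G551D and halide-sensitive YFP (H148Q/I152L/F47L), expressed 24 h at 37 °C. YFP fluorescence quenching recorded for 7 s after I⁻ injection. Response = 1−F/F0; EC50 derived from 1−F/F0 vs compound concentration.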

% Activation [1] [%]	EC50 [1] [µM]	% Activation [2] [%]	EC50 [2] [µM]	Compound
12.4	> 2	1.5	> 10	CN1CCC(O)(CNC(=O)c2ncc(S(=O)(=O)c3ccc(C(F)(F)F)cc3)cc2N)CC1 [Compound 230, 3-amino-N-[(4-hydroxy-1-methylpiperidin-4-yl)methyl]-5-{[4-(trifluoromethyl)phenyl]sulfonyl}pyridine-2-carboxamide]
94.5	0.0684	66.0	1.49	COCC1(C)CN(C(=O)c2ncc(S(=O)(=O)c3ccc(C(F)(F)F)cc3)cc2N)C1 [Compound 232, (3-amino-5-{[4-(trifluoromethyl)phenyl]sulfonyl}pyridin-2-yl)[3-(methoxymethyl)-3-methylazetidin-1-yl]methanone]
44.9	1.39	5.4	> 10	Nc1cc(S(=O)(=O)c2ccc(C(F)(F)F)cc2)cnc1C(=O)N1CCC[C@@H]1CO [Compound 233, (3-amino-5-{[4-(trifluoromethyl)phenyl]sulfonyl}pyridin-2-yl) [(2R)-2-(hydroxymethyl)pyrrolidin-1-yl]methanone]
102.4	0.0393	46.1	1.09	CC[C@@H](CO)NC(=O)c1ncc(S(=O)(=O)c2ccc(C(F)(F)F)cc2)cc1N [Compound 234, 3-amino-N-[(2S)-1-hydroxybutan-2-yl]-5-{[4-(trifluoromethyl)phenyl]sulfonyl}pyridine-2-carboxamide]
58.5	> 0.667	14.4		Nc1cc(S(=O)(=O)c2ccc(C(F)(F)F)cc2)cnc1C(=O)N[C@@H]1COCC[C@@H]1O [Compound 235, 3-amino-N-[(3R,4S)-4-hydroxytetrahydro-2H-pyran-3-yl]-5-{[4-(trifluoromethyl)phenyl]sulfonyl}pyridine-2-carboxamide]
115.5	0.0036	77.2	0.364	Nc1cc(S(=O)(=O)c2cccc(OC(F)(F)F)c2)cnc1C(=O)NCC(O)C(F)(F)F (centres unmarked) [Compound 236, 3-amino-N-(3,3,3-trifluoro-2-hydroxypropyl)-5-{[3-(trifluoromethoxy)phenyl]sulfonyl}pyridine-2-carboxamide]
106.5	0.0099	69.5	0.546	CC(C)Oc1ccc(S(=O)(=O)c2cnc(C(=O)NCC(O)C(F)(F)F)c(N)c2)cc1 (centres unmarked) [Compound 237, 3-amino-5-{[4-(propan-2-yloxy)phenyl]sulfonyl}-N-(3,3,3-trifluoro-2-hydroxypropyl)pyridine-2-carboxamide]
53.7	0.538	4.8	> 10	Nc1cc(S(=O)(=O)CC2CCCO2)cnc1C(=O)NCC(O)C(F)(F)F (centres unmarked) [Compound 238, 3-amino-5-[(tetrahydrofuran-2-ylmethyl)sulfonyl]-N-(3,3,3-trifluoro-2-hydroxypropyl)pyridine-2-carboxamide]
95.8	0.0295	76.5	1.05	COCC(O)CNC(=O)c1ncc(S(=O)(=O)c2ccc(C(F)(F)F)cc2)cc1N (centres unmarked) [Compound 239, 3-amino-N-(2-hydroxy-3-methoxypropyl)-5-{[4-(trifluoromethyl)phenyl]sulfonyl}pyridine-2-carboxamide]
98.1	0.137	50.6	0.949	Nc1cc(S(=O)(=O)c2ccc(C(F)(F)F)cc2)cnc1C(=O)NCCOC(F)(F)F [Compound 240, 3-amino-N-[2-(trifluoromethoxy)ethyl]-5-{[4-(trifluoromethyl)phenyl]sulfonyl}pyridine-2-carboxamide]
103.0	0.0254	71.5	0.841	Nc1cc(S(=O)(=O)c2ccc(OC(F)(F)F)cc2)cnc1C(=O)NC[C@H](O)COCC1CC1 [Compound 242, 3-amino-N-[(2S)-3-(cyclopropylmethoxy)-2-hydroxypropyl]-5-{[4-(trifluoromethoxy)phenyl]sulfonyl}pyridine-2-carboxamide]
111.5	0.0083	99.0	0.639	CC(C)OC[C@@H](O)CNC(=O)c1ncc(S(=O)(=O)c2ccc(C(F)(F)F)cc2)cc1N [Compound 243, 3-amino-N-[(2S)-2-hydroxy-3-(propan-2-yloxy)propyl]-5-{[4-(trifluoromethyl)phenyl]sulfonyl}pyridine-2-carboxamide]
102.5	0.0085	65.9	0.564	Nc1cc(S(=O)(=O)c2ccccc2)cnc1C(=O)NCC(O)C(F)(F)F (centres unmarked) [Compound 244, 3-amino-5-(phenylsulfonyl)-N-(3,3,3-trifluoro-2-hydroxypropyl)pyridine-2-carboxamide]
114.0	0.0056	80.8	0.395	Cc1ccc(S(=O)(=O)c2cnc(C(=O)NCC(O)C(F)(F)F)c(N)c2)cc1 (centres unmarked) [Compound 245, 3-amino-5-[(4-methylphenyl)sulfonyl]-N-(3,3,3-trifluoro-2-hydroxypropyl)pyridine-2-carboxamide]
118.0	0.0039	106.0	0.391	CC(C)c1ccc(S(=O)(=O)c2cnc(C(=O)NCC(O)C(F)(F)F)c(N)c2)cc1 (centres unmarked) [Compound 246, 3-amino-5-{[4-(propan-2-yl)phenyl]sulfonyl}-N-(3,3,3-trifluoro-2-hydroxypropyl)pyridine-2-carboxamide]
114.5	0.0043	98.7	0.219	CC(C)(C)c1ccc(S(=O)(=O)c2cnc(C(=O)NCC(O)C(F)(F)F)c(N)c2)cc1 (centres unmarked) [Compound 247, 3-amino-5-[(4-tert-butylphenyl)sulfonyl]-N-(3,3,3-trifluoro-2-hydroxypropyl)pyridine-2-carboxamide]
105.0	0.012	91.1	0.385	Nc1cc(S(=O)(=O)c2ccc(C(F)(F)F)cc2)cnc1C(=O)NC[C@@H](O)COCC(F)(F)F [Compound 248, 3-amino-N-[(2R)-2-hydroxy-3-(2,2,2-trifluoroethoxy)propyl]-5-{[4-(trifluoromethyl)phenyl]sulfonyl}pyridine-2-carboxamide]
96.2	0.003	83.7	0.172	Nc1cc(S(=O)(=O)c2ccc(C(F)(F)F)cc2)cnc1C(=O)NC[C@H](O)COCC(F)(F)F [Compound 249, 3-amino-N-[(2S)-2-hydroxy-3-(2,2,2-trifluoroethoxy)propyl]-5-{[4-(trifluoromethyl)phenyl]sulfonyl}pyridine-2-carboxamide]
111.5	0.001	90.4	0.453	Nc1cc(S(=O)(=O)c2ccc(F)cc2)c(Br)nc1C(=O)NC[C@@H](O)C(F)(F)F [Compound 250, 3-amino-6-bromo-5-[(4-fluorophenyl)sulfonyl]-N-[(2R)-3,3,3-trifluoro-2-hydroxypropyl]pyridine-2-carboxamide]
110.0	0.0163	93.3	0.919	Nc1cc(S(=O)(=O)c2ccc(OC(F)(F)F)cc2)cnc1C(=O)NC[C@@H](O)COCC1CC1 [Compound 251, 3-amino-N-[(2R)-3-(cyclopropylmethoxy)-2-hydroxypropyl]-5-{[4-(trifluoromethoxy)phenyl]sulfonyl}pyridine-2-carboxamide]
106.0	0.005	56.0	1.45	Nc1cc(S(=O)(=O)c2cccc(F)c2)cnc1C(=O)NC[C@@H](O)C(F)(F)F [Compound 254, 3-amino-5-[(3-fluorophenyl)sulfonyl]-N-[(2R)-3,3,3-trifluoro-2-hydroxypropyl]pyridine-2-carboxamide]
104.2	0.0013	41.8	5.77	Nc1cc(S(=O)(=O)c2ccccc2)cnc1C(=O)N1CC(O)(C(F)(F)F)C1 [Compound 255, [3-amino-5-(phenyl sulfonyl)pyridin-2-yl][3-hydroxy-3-(trifluoromethyl)azetidin-1-yl]methanone]
107.4	0.00066	45.6	> 3.33	Nc1cc(S(=O)(=O)c2cccc(F)c2)cnc1C(=O)N1CC(O)(C(F)(F)F)C1 [Compound 256, {3-amino-5-[(3-fluorophenyl)sulfonyl]pyridin-2-yl}[3-hydroxy-3-(trifluoromethyl)azetidin-1-yl]methanone]
122.0	0.0269	50.4	0.76	Nc1cc(S(=O)(=O)c2ccc(C(F)(F)F)cc2)cnc1C(=O)N[C@H]1COCC[C@H]1O [Compound 257, 3-amino-N-[(3S,4R)-4-hydroxytetrahydro-2H-pyran-3-yl]-5-{[4-(trifluoromethyl)phenyl]sulfonyl}pyridine-2-carboxamide]
